Results reported in patent US7998474B2, “Methods for treating an inflammatory disease of the bowel” (Rowett Research Institute, priority 2001, dated 2011).
Marks after values point to notes of the source that are not given here.

What was measured:
RelA [NF-κB p65] [1] = experiment: Immunofluorescence localisation of RelA in Caco-2 cells; type: cell-based
PPARγ [2] = experiment: Cellular distribution of PPARγ in Caco-2 cells (immunocytochemistry, western blot)
Caco-2 cells = experiment: Inflammatory cytokine gene expression in Caco-2 cells exposed to S. enteritidis (macroarray, Northern, real-time PCR); type: cell-based
PPARγ [3] = experiment: Northern hybridisation of PPAR mRNA in Caco-2 cells; type: cell-based; conditions: 2 hours
RelA [NF-κB p65] [4] = experiment: Supershift EMSA on Caco-2 nuclear extracts; type: cell-based; conditions: S. enteritidis, 2 hours, heat inactivation 70° C. 15 minutes
Method: Where indicated B. thetaiotaomicron was heat inactivated at 70° C. for 15 minutes prior to its addition to the Caco-2 cells.
Nuclear extracts were incubated with single stranded ^32P-labeled oligonucleotide probes containing consensus binding sequences for NF-κB (SEQ ID NO:1 5′-[…] -3′) or AP-1 (SEQ ID NO: 2 5′-[…] -3′), separated by electrophoresis and visualized by autoradiography. EMSA supershifts were performed using specific NF-κB subunit antibodies. Effects of B. thetaiotaomicron on NFκB and AP-1 signaling were determined by EMSA, western blotting (protein and phosphoprotein), promoter-specific reporter analysis and target gene expression (eg. fos and jun).

NF-κB = NF-κB luciferase reporter in transfected Caco-2 cells; type: cell-based; conditions: bacteria 2 hours, luciferase after 8 hours
Method: C) Caco-2 cells were transfected with PPARγ DN and a NF-κB luciferase reporter construct (DN), and compared with control cells transfected with NF-κB luciferase reporter alone (MOCK).
Double transfection studies with PPARγ DN and an NF-κB luciferase reporter (gifted by Dr Israel, Pasteur Institute, Paris, France) were performed. […] To avoid this we stimulated the cells for 2 hours and then removed the bacteria by washing and determined luciferase protein production after 8 hours. We found both in the control and PPARγ DN transfected cells, that S. enteritidis induced NF-κB activation and luciferase protein synthesis (P<0.001) (FIG. 5C). In the PPARγ wild type (NT) transfected cells (luciferase alone) this response was attenuated by B. thetaiotaomicron (P<0.028), but not in dominant negative (DN) transfected cells (FIG. 5C). Similarly, there was modification of the cellular distribution of RelA, as determined using immunocytochemistry and laser scanning confocal microscopy (LSCM), in cells transfected with green fluorescent protein (GFP) with and without PPARγ DN. In the control cells (GFP alone) the distribution of RelA was predominantly cytosolic as described above for non-transfected cells (FIG. 5D (insert B,C)). In PPARγ DN transfected cells, the distribution was irregular and RelA localised to both the cytosolic and nuclear compartments (FIG. 5D, (insert D, E)).

p38 MAP kinase = experiment: Western blot of MAP kinase phosphorylation in Caco-2 cells; type: cell-based; conditions: co-incubation
RelA = experiment: Immunoprecipitation of RelA / PPARγ from Caco-2 cells; type: cell-based
Text: Immuno-precipitates were resolved using SDS-PAGE. Western blots were developed using a monoclonal anti-RelA [NF-κB p65], anti-PPARγ antibodies and anti-HDAC3 (Santa Cruz).
A) Immuno-detection RelA. Caco-2 cells prepared following standard culture protocol, treatment groups (1-4). Immunoprecipitates prepared using anti-PPARγ sepharose conjugate.

[5] = Viability of the bacterium in jelly; conditions: commercial jelly prepared under anaerobic conditions, set at 4° C.
Method: Ten ml of B. thetaiotaomicron culture was centrifuged (2000 g, 12 min), the pellet was washed with 0.05M phosphate buffered saline pH 7.2 and then resuspended in commercial jelly [10 ml, 37° C., prepared under anaerobic conditions]. The jelly was poured into a sterile petri dish under CO2 and allowed to set at 4° C. Approximately 1 hour later, the jelly was cut into weighed amounts (0.5 g, ˜10^8 CFU B. thetaiotaomicron) and fed to the rats. The bacterium remained viable for at least 6 hours under these conditions. However, usually all jelly was eaten within a few minutes of being placed in the cage.

[6] = Body weight, tissue weights and composition, faecal output in rats; type: in vivo, Hooded Lister rats
Text: Twenty-four male specific pathogen-free Hooded Lister rats (40 g), bred in the small animal unit of the Rowett Research Institute, were weaned at 19 days and immediately transferred to a Class II facility. They were housed individually in metabolism cages (Techniplast, Kettering, UK) within flexi-film isolators (Moredun, Animal Health, Penicuik, UK) for the duration of the study (21 days). Nesting tunnels were provided in each metabolism cage and cages were arranged within the isolators to allow sight of but not contact with other animals. Sterile distilled water was available at all times. Rats were weighed daily and faeces was collected throughout the study.
Data are the means ISD (n=3). The rats were initially given free access to a high quality semi-synthetic (100 g protein kg^−1) lactalbumin-based diet (Grant et al, 2000). […] This was the average daily free intake observed for rats of the same age after oral infection with Salmonella enterica var. Enteritidis and around 70% of the free intake of this diet by non-infected animals. The rats were housed and managed in this manner from weaning to reduce environmental exposure to bacteria and cross-contamination post-weaning (Grant, 1996).
Twelve of the rats were given B. thetaiotaomicron (approximately 10^8 CFU) once daily from weaning (19d) through to completion of the study. At 34 days of age, six rats pre-treated with B. thetaiotaomicron and six controls were given, by gavage, a single dose of 0.8 ml of Salmonella serovar Enteritidis S1400 culture (approximately 10^9 CFU). The remaining rats were given the equivalent amount of culture medium. All rats were returned to their cages and fed lactalbumin-based diet (7 g rat^−1 day^−1) for a further 6 days. On the final day, the rats were fed 2 g of diet and were killed by halothane (Rhone Merieux, Essex, UK) overdose and exsanguination exactly two hours later. The abdomen was opened and tissues were aseptically removed. […]
DNA, RNA, protein were determined as before by the diphenylamine, orcinol and modified Lowry methods (Grant et al, 2000). […]

Myeloperoxidase (MPO) = Myeloperoxidase (MPO) activity in rat tissue; type: in vivo, Hooded Lister rats; conditions: 6d post-infection, mean ± SD, n = 6
Method: Tissue samples were homogenised (1:80 w/v) in ice-cold 5 mM potassium phosphate buffer pH 6.0 using a Janke-Kunkel Ultra-Turrax T25 tissue homogeniser at 20,000 rev min^−1 for 30 seconds and centrifuged (3000 g×30 min, 4° C.). The pellet (1:20 w/v) was sonicated (3×5 sec) in ice-cold 0.5M potassium phosphate pH 6.0 containing hexadecyltrimethyl-ammonium bromide (HETAB, 5 g/l) and ethylenediaminetetraacetic acid (EDTA, 3.72 g/1), left on ice for 30 min and centrifuged (3000 g×30 min, 4° C.) [Stucchi et al, 2000]. The supernatant was frozen until assayed. Myeloperoxidase (MPO) activity was determined by monitoring H2O2 dependent oxidation of 3,3′,5,5′-tetramethylbenzidine (TMB, Dynex Technologies, Ashford, UK) in 50 mM potassium phosphate buffer pH 6.0 (Zimmerman and Granger, 1990). Absorbance at 450 nm was measured after termination of the reaction with 0.18M H2SO4. Human myeloperoxidase (Calbiochem, UK) was used as a standard and values were expressed as MPO equivalents.

Immunoreactive MPO = Immunoreactive MPO in intestinal contents or faeces (competitive ELISA); type: in vivo, Hooded Lister rats; conditions: during 6d post-infection, mean ± SD, n = 6
Method: Immunoreactive MPO in intestinal contents or faeces was determined by a competitive ELISA method. Microtiter plates (Immulon 4, Dynex Technologies, Ashford, UK) were coated [10 ng/well] with human myeloperoxidase in 10 mM phosphate buffered saline pH 7.4 [PBS] overnight at 4° C. After washing [PBS containing Tween-20 (1 ml/l], plates were blocked with PBS containing bovine serum albumin (BSA, 10 g/l) for 1 hour at room temperature. Plates were washed and samples or standards added [50 μl/well] and serially diluted in PBS containing BSA (1 g/l), Tween-20 (1 ml/l) and leupeptin (1 mg/l). Rabbit anti-human myeloperoxidase antibody [Calbiochem, UK, 50 μl/well of 1:4000 dilution] was also added. The plates were incubated for 1 hour, washed and then reacted for 1 hour with biotinylated anti-rabbit IgG followed by Extravidin/peroxidase (EXTRA-3 kit, Sigma-Aldrich, Poole, UK). After washing, TMB reagent (7 μl/well) was added and incubated in the dark for up to 2 hours. The reaction was stopped by addition (50 μl/well) of 0.18M H2SO4 and the absorbance read at 450 nm. Values were expressed as immunoreactive MPO equivalents.

leukocyte-elastase = experiment: Elastase in faeces or intestine contents; type: in vivo, Hooded Lister rats; conditions: mean ± SD, n = 6
Method: Freeze dried faeces or intestine contents were extracted (1:10 w/v) in ice-cold 0.5M potassium phosphate pH 6.0 containing HETAB, EDTA and NaN3 (1 g/l), left on ice for 30 min, centrifuged (3000 g, 30 min, 4° C.) and the supernatants were frozen.
Sample or leukocyte-elastase (Sigma-Aldrich, Poole, UK) was serially diluted in 0.2M Tris HCl pH 8.0 containing 1 M NaCl and leupeptin (1 mg/l) on a microtiter plate. Substrate (N-succinyl-ala-ala-val-p-nitroanilide, 0.2 g/l, Sigma-Aldrich, Poole, UK) was added and the absorbance at 405 nm monitored immediately and at intervals up to 20 hours during incubation at 37° C. Values were expressed as leukocyte-elastase equivalents.

[7] = Skeletal (gastrocnemius) muscle accretion in rats; type: in vivo, Hooded Lister rats; conditions: 6 d post-infection
Method: Gastrocnemius muscle is taken as representative of skeletal muscle and total skeletal muscle in young Hooded-Lister rats as approximately 47 times the weight of the gastrocnemius muscle (Bardocz et al, 1996). Initial weight of gastrocnemius muscles 804±10 mg wet weight [194±7 mg dry weight] per 100 g initial fresh body weight.
Further pieces of jejunum and ileum (15-25 cm from the pylorus and 15-25 cm from the ileo-caecal junction respectively) were collected and frozen in liquid nitrogen for biochemical analysis, as was the remaining small intestine tissue (˜40 cm), liver, spleen, kidney, thymus, lungs, heart and gastrocnemius hind-limb muscles. These were weighed, freeze-dried and reweighed.

IL-8 = IL-8 protein in culture supernatants (ELISA); conditions: co-culture with S. enteritidis over 4 h (S. enteritidis alone 400 pg/ml)
S. enteritidis = S. enteritidis infection of minimal flora rats, MPO in ileal mucosa; conditions: 10^8 cfu B. thetaiotaomicron in jelly for 19 days, then 10^8 S. enteritidis, 6 days post infection, P<0.001
human PMNs = experiment: Transepithelial migration of PMN through Caco-2 monolayer (MPO assay); conditions: Caco-2 Transwell, S. enteritidis, MPO readout
[8] = 800 nM for 4 hours, cells treated with S. enteritidis alone

CCC(=C/[C@H](C)C/C=C/C(C)=C/[C@@H](C)C(=O)[C@@H](C)[C@H](O)[C@@H](C)C/C(C)=C/C(=O)O)/C=C/[C@@H]1OC(=O)C=C[C@@H]1C [LMB, leptomycin B]
RelA in nuclei after inhibition of CRM-1-dependent nuclear export (RelA [NF-κB p65] [1]; cells co-cultured with S. enteritidis and B. thetaiotaomicron): caused an accumulation of RelA in nuclei | Nucleocytoplasmic shuttling of PPARγ induced by co-culture of S. enteritidis and B. thetaiotaomicron (PPARγ [2]; Caco-2 cells, inhibitor treatment): not blocked

CC(/C=C/C(=O)NO)=C\[C@@H](C)C(=O)c1ccc(N(C)C)cc1 [TSA, trichostatin A]
p65 nuclear accumulation after HDAC inhibition (RelA [NF-κB p65] [1]; [8]): partial p65 accumulation | Exit of PPARγ to cytosol after HDAC inhibition (PPARγ [2]; [8]): accelerated exit of PPARγ to cytosol | PPARγ localisation in S. enteritidis-treated Caco-2 cells with inhibitor (PPARγ [2]; S. enteritidis-treated Caco-2 cells): induce punctate cytosolic labeling and export of PPARγ from the nucleus

CCCCC/C=C/C=C1/C(=O)C=C[C@@H]1C/C=C\CCCC(=O)O [15d-PGJ2, 15-deoxy-Δ^12,14-prostaglandin J2, reference compound]
Activation of inflammatory cytokine expression (TNF-α, IL-8, COX-2) by S. enteritidis (Caco-2 cells; 10^8 S. enteritidis plus drug 10-30 μM, 2 hours, Northern): attenuated | PPARγ mRNA after PPAR ligand (PPARγ [3]; Caco-2 cells, 10^8 S. enteritidis plus 30 μM ligand): decreased

Bacteroides thetaiotaomicron [BT]
IL-10 gene expression (Caco-2 cells): not affected | Induction of TNF-α, IL-8, MIP-2α and COX-2 expression following S. enteritidis exposure (Caco-2 cells; 10^8 S. enteritidis with 10^9 commensal bacteria, 2 hours): attenuated | Translocation of RelA to the nucleus (RelA [NF-κB p65] [1]; Caco-2 cells, 10^8 S. enteritidis, 2 hours): abolish the translocation of RelA to the nucleus | RelA response (supershift EMSA) (RelA [NF-κB p65] [4]): inhibited | mRNA for PPARα and PPARγ (PPARγ [3]; Caco-2 cells exposed to S. enteritidis and B. thetaiotaomicron): decreased | S. enteritidis induced NF-κB luciferase response, PPARγ dominant negative (DN) transfected cells (NF-κB): not | S. enteritidis induced NF-κB luciferase response, PPARγ wild type cells (luciferase alone) (NF-κB; P<0.028): attenuated | p38 phosphorylation induced by Salmonella (p38 MAP kinase): not modified | HDAC3 association with RelA (RelA; Caco-2 cells co-cultured with S. enteritidis and B. thetaiotaomicron, 2 hours): promoted | Co-purification of RelA with PPARγ (RelA; cells treated with S. enteritidis in the presence of B. thetaiotaomicron): co-purification of RelA | Time the bacterium remained viable in jelly [5]: at least 6 hours | Water content of small intestine ([6]; 6 d post-infection): 745 ± 24 mg/g | Weight of Gastrocnemius muscles ([6]; 6d post-infection, mean ± SD, n = 6): 834 ± 22^a mg wet weight/100 g fresh body weight | Adverse effect on gut or systemic metabolism ([6]; specific pathogen-free rats, daily B. thetaiotaomicron from weaning): no indications that B. thetaiotaomicron adversely affected gut or systemic metabolism | Ileum (20 cm) MPO (Myeloperoxidase (MPO)): 33.1 ± 6.2^a μg | Jejunum (20 cm) MPO (Myeloperoxidase (MPO)): 29.3 ± 5.2 µg | Faeces MPO (Immunoreactive MPO): 2.6 ± 1.0^a μg/d | Intestinal contents Elastase (leukocyte-elastase; 6d post-infection): 210 ± 0.38^a μg | Faeces Elastase (leukocyte-elastase; during 6d post-infection): 5.7 ± 1.0^a μg/d | Gastrocnemius muscle accretion rate, dry weight [7]: 4.2±1.0 mg dry weight per day | Gastrocnemius muscle accretion rate, wet weight [7]: 17.0±4.2 mg wet weight per day | IL-8 protein in culture supernatants (IL-8): 230 pg/mL | Level of MPO in the ileal mucosa (S. enteritidis): significantly attenuated | PMN recruitment in vitro (human PMNs): confirmed the anti-inflammatory activity | Cellular distribution of PPARγ (PPARγ [2]; Caco-2 cells, co-culture of S. enteritidis with B. thetaiotaomicron): redistributed to the cytosol
